Assay results as given in patent publication US20120015812A1, “Mixtures of strobilurins with triexapac-ethyl” (BASF SE, priority 2003, published 2012).

Legend:
[1] = tested on: soybeans (cv. “Embrapa 48”); test: Yield improvement of soybeans naturally infected with Phakopsora pachyrhizi; assay type: in vivo, soybean; details: as in Example 3; pyraclostrobin 112.5 g/ha, Co++ 29 g/ha, alone or combined
Description: Seeds of soybean cv. “Embrapa 48” were planted and grown under standard conditions with adequate supply of water and nutrients. Infection with Phakopsora pachyrhizi occurred naturally. The active ingredients have been applied twice, 62 and 68 days after seeding.
Yield improvement of soybeans (cv. “Embrapa 48)

[2] = tested on: Phakopsora pachyrhizi; test: Spray treatment of soybeans preinfected with Phakopsora pachyrhizi: infection by pathogen; assay type: in vivo; details: soybeans cv. RS10, 8-12% preinfection, spray application, 8 days after treatment; 133 g/ha pyraclostrobin
Protocol: (§1) During fruit formation, soybeans of the cultivar RS10 with 8-12% preinfection by Phakopsora pachyrhizi were treated by spray application using customary sprayers with a mixture of 133 g/ha of pyraclostrobin, 80 g/ha of CoCl2×6 H2O(=20 g/ha of cobalt) and 100 g/ha of prohexadione-Ca. Entirely untreated plants and plants treated with 133 g/ha of pyraclostrobin were used for comparison.

[3] = tested on: soybeans of the cultivar RS10; test: Spray treatment of rust-preinfected soybeans: leaf drop and yield; assay type: in vivo, soybean; details: soybeans cv. RS10, 8-12% preinfection by Phakopsora pachyrhizi, 8 days after treatment; pyraclostrobin 133 g/ha alone or with 80 g/ha CoCl2×6 H2O and 100 g/ha prohexadione-Ca
Protocol: as §1

[4] = tested on: soybean plants (cv. “Delta Pine”); test: Reduction of ethylene formation in leaves of soybean plants (gas chromatography); assay type: in vivo; details: for Ethylene Evolution per Unit Leaf Weight [% of Control]: greenhouse, leaf spray 750 l/ha, 24 hours after treatment, shoots wilted 10 min, incubated 60 min, g/ha of ai: Co++ 40, pyraclostrobin 100, salicylic acid 500
Protocol: Soybean plants were raised under greenhouse conditions with two plants each per 12-cm pot. Spray treatments of the leaves were carried out with a volume of liquid of 750 l/ha when the plants had developed one to two trifoliate leaves. 24 hours after treatment, the shoots of the soybean plants were dissected above the cotyledons and wilted for 10 minutes under laboratory conditions. Shoots representing a distinct treatment were incubated for 60 minutes under laboratory conditions in a 100-ml Erlenmeyer flask sealed with a rubber cap. Thereafter, gas samples were taken and analyzed for their ethylene content by gas chromatography.
Reduction of ethylene formation in leaves of soybean plants (cv. “Delta Pine”)

SMILES	seed yield improvement above the control [1] [%]	infection by pathogen [2]	leaf drop [3]	ethylene formation in drought-stressed soybean leaves ([4]; summary in words of Example 2)	Ethylene Evolution per Unit Leaf Weight [% of Control] [4]
[Co+2] [Co^++]	22	–	–	–	–
COC(=O)N(OC)c1ccccc1COc1ccn(-c2ccc(Cl)cc2)n1 [pyraclostrobin, methyl N-{2-[1-(4-chlorophenyl)-1H-pyrazol-3-yloxymethyl]phenyl}(N-methoxy)carbamate]	24	less infection by pathogen than the entirely untreated plants	considerable leaf drop	inhibits ethylene formation	–
O.O.O.O.O.O.[Cl-].[Cl-].[Co+2] [CoCl2 × 6 H2O, CoCl2×6 H2O]	–	–	–	–	41 % of Control
O=C(O)c1ccccc1O [Salicylic Acid]	–	–	–	–	97 % of Control
